Measurements published in ChEMBL document CHEMBL5543122, “Discovery of HC-7366: An Orally Bioavailable and Efficacious GCN2 Kinase Activator” (J Med Chem, 2024).
Active and inactive are the calls of the source. No cut-off for these calls is given here.

Legend:
[1] = biological target: T1, Eukaryotic translation initiation factor 2-alpha kinase 3 (Homo sapiens) (UniProt Q9NZJ5); test: Activation of PERK in HEK293 cells transfected with ATF4 response element assessed as unbound effective concentration preincubated for 30 mins followed by tunicamycin addition and measured after 6 hrs by One-Glo reagent based plate reader assay; type: cell-based; conditions: filed as activator, time 6.5 hrs
T1 sequence (whole entry): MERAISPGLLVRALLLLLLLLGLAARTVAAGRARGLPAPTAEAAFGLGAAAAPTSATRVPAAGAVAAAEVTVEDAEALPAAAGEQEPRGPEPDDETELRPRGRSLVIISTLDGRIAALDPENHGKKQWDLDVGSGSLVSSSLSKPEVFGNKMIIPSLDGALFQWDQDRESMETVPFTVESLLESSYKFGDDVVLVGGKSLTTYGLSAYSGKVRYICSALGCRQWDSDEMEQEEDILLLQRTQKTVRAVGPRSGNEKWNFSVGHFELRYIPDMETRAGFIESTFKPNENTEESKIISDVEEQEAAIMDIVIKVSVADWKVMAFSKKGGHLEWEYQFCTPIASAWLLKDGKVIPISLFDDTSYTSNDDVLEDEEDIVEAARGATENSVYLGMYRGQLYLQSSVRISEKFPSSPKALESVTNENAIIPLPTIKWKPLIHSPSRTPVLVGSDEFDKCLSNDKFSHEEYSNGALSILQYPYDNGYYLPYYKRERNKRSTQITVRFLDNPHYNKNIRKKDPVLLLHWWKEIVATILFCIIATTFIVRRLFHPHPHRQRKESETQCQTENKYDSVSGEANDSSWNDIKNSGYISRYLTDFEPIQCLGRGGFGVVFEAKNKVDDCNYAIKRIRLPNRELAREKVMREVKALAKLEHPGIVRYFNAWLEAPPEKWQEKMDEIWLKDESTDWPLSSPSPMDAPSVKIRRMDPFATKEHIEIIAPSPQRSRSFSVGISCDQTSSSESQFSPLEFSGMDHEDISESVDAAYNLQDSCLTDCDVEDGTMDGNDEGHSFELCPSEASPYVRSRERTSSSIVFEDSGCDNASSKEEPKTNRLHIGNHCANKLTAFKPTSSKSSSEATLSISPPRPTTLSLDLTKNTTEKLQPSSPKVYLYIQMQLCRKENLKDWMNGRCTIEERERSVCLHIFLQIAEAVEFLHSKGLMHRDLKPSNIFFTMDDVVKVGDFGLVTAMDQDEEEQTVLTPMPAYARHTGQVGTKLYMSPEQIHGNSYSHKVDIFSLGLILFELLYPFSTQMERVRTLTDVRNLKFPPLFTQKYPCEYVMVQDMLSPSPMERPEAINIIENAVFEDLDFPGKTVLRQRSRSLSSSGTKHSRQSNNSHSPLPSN

Mus musculus [2] = test: In vivo activation of GCN2 in BALB/c nude mouse xenografted with human HT-1080 cells assessed as […] ATF4 protein level in tumor at 0.3 to 3 mg/kg after 6 hrs; type: functional, organism-based; conditions: dose 0.3-3 mg/kg
Mus musculus [3] = test: In vivo activation of GCN2 in BALB/c nude mouse xenografted with human HT-1080 cells assessed as […] ASNS protein level in tumor at 0.3 to 3 mg/kg after 6 hrs; type: functional, organism-based; conditions: dose 0.3-3 mg/kg
MOLM-16 = test: Antitumor activity against human MOLM16 cells xenografted in BALB/c nude mouse assessed as reduction in tumor growth at 1 to 3 mg/kg administered twice a day for 17 days; type: functional, organism-based; conditions: dose 1-3 mg/kg, time 17.0 day
[4] = Protein binding in HEK293 cells assessed as free fraction; type: ADME, cell-based; conditions: human
[5] = biological target: T2, Eukaryotic translation initiation factor 2-alpha kinase 3 (Homo sapiens, UniProt Q9NZJ5); test: Activation of PERK in HEK293 cells transfected with ATF4 response element preincubated for 30 mins followed by tunicamycin addition and measured after 6 hrs by One-Glo reagent based plate reader assay; type: cell-based
T2 sequence (Q9NZJ5 whole entry): T1 sequence (whole entry)

[6] = Intrinsic clearance in rat hepatocytes assessed per 10^4 cells at 1 uM measured upto 120 mins by UPLC-MS/MS analysis; type: ADME, cell-based, Hepatocyte; conditions: 2 h
[7] = Intrinsic clearance in human hepatocytes assessed per 10^4 cells at 1 uM measured upto 120 mins by UPLC-MS/MS analysis; type: ADME, cell-based, Hepatocyte; conditions: 2 h
[8] = Unbound fraction in Sprague-Dawley rat plasma at 1 mg/kg, iv measured upto 24 hrs; type: ADME, organism-based
[9] = Unbound clearance in Sprague-Dawley rat plasma at 1 mg/kg, iv measured upto 24 hrs; type: ADME, organism-based; conditions: in vivo
[10] = Volume of distribution at steady state in Sprague-Dawley rat at 1 mg/kg, iv measured upto 24 hrs; type: ADME, organism-based; conditions: in vivo, read-out: Vdss
[11] = Unbound volume of distribution at steady state in Sprague-Dawley rat at 1 mg/kg, iv measured upto 24 hrs; type: ADME, organism-based; conditions: in vivo
[12] = Half-life in Sprague-Dawley rat at 1 mg/kg, iv measured upto 24 hrs; type: ADME, organism-based; conditions: in vivo
[13] = Cmax in Sprague-Dawley rat at 3 mg/kg, po measured upto 24 hrs; type: ADME, organism-based; conditions: in vivo
[14] = Unbound Cmax in Sprague-Dawley rat at 3 mg/kg, po measured upto 24 hrs; type: ADME, organism-based; conditions: in vivo
[15] = Unbound AUC in Sprague-Dawley rat at 3 mg/kg, po measured upto 24 hrs; type: ADME, organism-based; conditions: in vivo
[16] = Oral bioavailability in Sprague-Dawley rat at 3 mg/kg measured upto 24 hrs; type: ADME, organism-based; conditions: in vivo; for F: po, 3 mg/kg, 24 h
physchem = conditions: 1-octanol/PBS, pH 7.4
eIF-2-alpha kinase GCN2 [17] = biological target: T3, eIF-2-alpha kinase GCN2 (Homo sapiens, UniProt Q9P2K8); test: Inhibition of GCN2 (unknown origin) using GFP-eIF2alpha as substrate incubated for 1.5 hrs in presence of ATP by plate reader analysis
Cytochrome P450 3A4 = Cytochrome P450 3A4 (Homo sapiens, UniProt P08684); test: Inhibition of CYP3A4 in human liver microsomes using midazolam substrate incubated for 5 mins in presence of NADPH by UPLC-MS/MS analysis
eIF-2-alpha kinase GCN2 [18] = biological target: T3, eIF-2-alpha kinase GCN2; test: Activation of GCN2 in HEK293 cells transfected with ATF4 response element preincubated for 30 mins followed by halofuginone addition and measured after 6 hrs by One-Glo reagent based plate reader assay; type: cell-based
eIF-2-alpha kinase GCN2 [19] = biological target: T3, eIF-2-alpha kinase GCN2; conditions: HEK293, filed as activator, time 6.5 hrs

T3 sequence (Q9P2K8 whole entry): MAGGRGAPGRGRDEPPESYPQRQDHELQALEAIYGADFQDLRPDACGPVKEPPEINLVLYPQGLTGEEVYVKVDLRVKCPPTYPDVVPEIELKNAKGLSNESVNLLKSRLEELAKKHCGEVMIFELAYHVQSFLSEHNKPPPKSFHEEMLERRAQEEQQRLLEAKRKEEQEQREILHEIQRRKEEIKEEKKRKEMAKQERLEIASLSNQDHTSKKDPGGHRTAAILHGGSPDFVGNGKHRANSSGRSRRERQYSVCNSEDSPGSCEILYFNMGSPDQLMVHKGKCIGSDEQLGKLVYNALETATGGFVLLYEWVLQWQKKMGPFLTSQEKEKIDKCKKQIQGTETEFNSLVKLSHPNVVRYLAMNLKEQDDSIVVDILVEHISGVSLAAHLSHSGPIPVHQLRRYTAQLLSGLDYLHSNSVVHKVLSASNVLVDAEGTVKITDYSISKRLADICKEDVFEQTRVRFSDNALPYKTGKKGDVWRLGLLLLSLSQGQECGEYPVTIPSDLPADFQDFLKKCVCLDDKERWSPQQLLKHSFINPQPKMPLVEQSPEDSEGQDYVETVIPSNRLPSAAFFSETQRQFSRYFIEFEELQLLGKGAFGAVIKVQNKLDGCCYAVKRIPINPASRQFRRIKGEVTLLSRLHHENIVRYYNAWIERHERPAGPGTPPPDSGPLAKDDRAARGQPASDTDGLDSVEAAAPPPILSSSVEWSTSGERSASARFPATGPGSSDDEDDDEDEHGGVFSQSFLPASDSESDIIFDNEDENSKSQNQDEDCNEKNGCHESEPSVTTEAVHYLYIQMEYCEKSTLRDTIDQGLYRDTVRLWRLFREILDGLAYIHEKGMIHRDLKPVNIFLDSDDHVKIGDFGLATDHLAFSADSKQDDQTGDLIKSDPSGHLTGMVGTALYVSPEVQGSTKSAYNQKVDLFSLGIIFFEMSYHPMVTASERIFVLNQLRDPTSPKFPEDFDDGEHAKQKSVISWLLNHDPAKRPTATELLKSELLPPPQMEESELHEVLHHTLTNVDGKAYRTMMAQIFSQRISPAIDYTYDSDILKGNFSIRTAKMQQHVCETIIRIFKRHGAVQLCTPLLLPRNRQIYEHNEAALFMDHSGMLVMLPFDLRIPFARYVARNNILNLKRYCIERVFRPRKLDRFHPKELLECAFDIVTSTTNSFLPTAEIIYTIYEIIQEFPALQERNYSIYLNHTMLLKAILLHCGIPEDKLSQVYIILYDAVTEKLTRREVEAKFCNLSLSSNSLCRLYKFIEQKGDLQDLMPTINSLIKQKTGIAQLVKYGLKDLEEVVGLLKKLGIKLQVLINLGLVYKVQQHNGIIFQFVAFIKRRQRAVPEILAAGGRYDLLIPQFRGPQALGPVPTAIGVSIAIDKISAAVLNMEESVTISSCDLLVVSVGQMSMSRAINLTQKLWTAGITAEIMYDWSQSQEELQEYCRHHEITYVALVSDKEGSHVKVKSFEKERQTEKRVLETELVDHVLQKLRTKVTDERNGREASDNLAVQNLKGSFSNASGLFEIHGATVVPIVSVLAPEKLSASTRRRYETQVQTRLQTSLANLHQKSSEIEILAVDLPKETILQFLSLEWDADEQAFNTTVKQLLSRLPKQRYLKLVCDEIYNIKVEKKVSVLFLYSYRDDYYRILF
Chain of Cytochrome P450 3A4 (P08684 whole entry): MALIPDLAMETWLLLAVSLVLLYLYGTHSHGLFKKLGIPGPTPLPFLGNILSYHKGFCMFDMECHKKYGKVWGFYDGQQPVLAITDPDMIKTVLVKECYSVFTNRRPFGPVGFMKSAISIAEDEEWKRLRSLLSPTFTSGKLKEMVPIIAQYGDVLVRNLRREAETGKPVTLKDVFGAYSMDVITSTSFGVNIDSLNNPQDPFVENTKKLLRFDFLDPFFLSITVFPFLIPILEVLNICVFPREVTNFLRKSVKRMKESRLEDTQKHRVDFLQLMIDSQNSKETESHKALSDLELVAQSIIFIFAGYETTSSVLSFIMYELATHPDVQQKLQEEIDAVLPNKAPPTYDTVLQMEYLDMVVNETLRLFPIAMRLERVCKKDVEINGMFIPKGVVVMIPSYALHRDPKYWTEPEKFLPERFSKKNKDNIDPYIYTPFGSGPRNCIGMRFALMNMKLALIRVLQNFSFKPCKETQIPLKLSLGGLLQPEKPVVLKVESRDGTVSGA

fEC50 [1] | fraction unbound [4] | EC50 [5] | CLH [6] | CLH [7] | fraction unbound at 24 h [8] | CL free [9] | Vd [10] | fVdss [11] | half-life [12] | Cmax [13] | fCmax [14] | fAUC [15] | F [16] | logD at 1 h (physchem) | SMILES | other results
2400 nM |  |  |  |  |  |  |  |  |  |  |  |  |  |  | CNC(=O)c1ncn2cc(-c3c(F)ccc(NS(=O)(=O)c4cc(Cl)cnc4OC)c3F)ncc12 | Activity (Mus musculus [2]): Active; Activity (Mus musculus [3]): Active; Activity (MOLM-16): Active
280 nM | 0.32 | 870 nM | 5.9 µL/min | 3.8 µL/min |  |  |  |  |  |  |  |  |  |  | CNC(=O)c1ncn2nc(-c3c(F)ccc(NS(=O)(=O)c4cc(Cl)cnc4OC)c3F)ccc12 | 
 |  | 5800 nM |  |  |  |  |  |  |  |  |  |  |  | 1.9 | CNC(=O)c1ncn2cc(-c3c(F)ccc(NS(=O)(=O)c4cc(F)cnc4C)c3F)ccc12 | 
1100 nM | 0.22 | 4900 nM | 9.8 µL/min | 9 µL/min | 0.001 | 930 mL/min/kg | 0.1 L/kg | 320 L/kg | 258 min | 20.6 µM | 6.2 nM | 29 nM·h | 54% |  | CNC(=O)c1ncn2cc(-c3c(F)ccc(NS(=O)(=O)c4cc(Cl)cnc4OC)c3F)ccc12 | 
 |  | > 10000 nM |  |  |  |  |  |  |  |  |  |  |  | 1.6 | CNC(=O)c1ncn2cc(-c3c(F)ccc(NS(=O)(=O)c4cc(C#N)cnc4OC)c3F)ccc12 | 
350 nM |  | 1500 nM |  |  |  |  |  |  |  |  |  |  |  | 3 | CNC(=O)c1ncn2c(F)c(-c3c(F)ccc(NS(=O)(=O)c4cc(Cl)cnc4OC)c3F)ccc12 | 
 |  | > 10000 nM |  |  |  |  |  |  |  |  |  |  |  | 2.3 | CNC(=O)c1ncn2cc(-c3c(F)ccc(NS(=O)(=O)c4cc(F)cnc4OC)c3F)ccc12 | 

The remaining lines, values behind:

SMILES | fEC50 [1] | fraction unbound [4] | EC50 [5] | CLH [6] | CLH [7] | fraction unbound at 24 h [8] | CL free [9] | Vd [10] | fVdss [11] | half-life [12] | Cmax [13] | fCmax [14] | fAUC [15] | F [16] | logD at 1 h (physchem) | other results
CNC(=O)c1ncn2c1CC[C@H](c1c(F)ccc(NS(=O)(=O)c3cc(F)cnc3OC)c1F)C2 | 1000 nM | 0.71 | 1500 nM | 13 µL/min | 7.8 µL/min | 0.012 | 340 mL/min/kg | 0.19 L/kg | 15 L/kg | 54 min | 14.2 µM | 180 nM | 140 nM·h | 95% |  | 
COc1ncc(Cl)cc1S(=O)(=O)Nc1ccc(F)c(-c2ccc3c(-c4ncc[nH]4)ncn3c2)c1F | 170 nM | 0.1 | 1700 nM | 15 µL/min | 2.8 µL/min | 0.001 | 390 mL/min/kg | 0.1 L/kg | 93 L/kg | 144 min | 14.3 µM | 16 nM | 93 nM·h | 70% |  | 
CNC(=O)c1n[nH]c2c(F)c(-c3c(F)ccc(NS(=O)(=O)c4cc(Cl)cnc4OC)c3F)ccc12 | 180 nM | 0.03 | 6100 nM | 11 µL/min | 5.8 µL/min | 0.002 | 88 mL/min/kg | 0.11 L/kg | 56 L/kg | 534 min | 10.4 µM | 20 nM | 130 nM·h | 25% |  | 
CNC(=O)c1ncn2cc(-c3c(F)ccc([N-]S(=O)(=O)c4cc(Cl)cnc4OC)c3F)ncc12.[K+] |  |  |  |  |  |  |  |  |  |  | 40 µM | 28 nM | 140 nM·h |  |  | bioavailability ([16]; Sprague-Dawley): 88%
COc1ncc(Cl)cc1S(=O)(=O)Nc1ccc(F)c(-c2ccc3c(-c4ncc[nH]4)n[nH]c3c2F)c1F | 55 nM | 0.04 | 1400 nM | 8.2 µL/min | 4.4 µL/min | 0.001 | 740 mL/min/kg | 0.09 L/kg | 180 L/kg | 228 min | 0.62 µM | 0.31 nM | 1.1 nM·h | 1.5% |  | 
CNC(=O)c1ncn2c1CC[C@H](c1c(F)ccc(NS(=O)(=O)c3cc(Cl)cnc3OC)c1F)C2 | 240 nM | 0.45 | 460 nM |  |  |  |  |  |  |  |  |  |  |  |  | IC50 (eIF-2-alpha kinase GCN2 [17]): 69 nM; IC50 (Cytochrome P450 3A4): 33 µM; EC50 (eIF-2-alpha kinase GCN2 [18]): 240 nM; fEC50 (eIF-2-alpha kinase GCN2 [19]): 110 nM
